This note sets out measurements from patent US20040142994A1, “Azolylcarbynol derivatives of aryl (or heteroaryl) for the treatment of respiratory diseases” (priority 2001, published 2004).

The test system of data set [1] is cough induced by citric acid aerosol. The experiment in a line: Antitussive activity against cough induced by citric acid aerosol in guinea-pig. In kind it is in vivo. The following applies: ip; for N° of Coughs ± SEM: 30 min before citric acid aerosol (7.5% p/v), 12.5 min observation, N=10; for SD-50: antitussive activity, citric acid aerosol. The text has this:
(§1) To do this, the antitussive activity has been studied in guinea-pigs, simultaneously studying the possible sedative effects at the doses used in this study. The method used was the one described by Boura [Boura A L A, Green A F, Saunders I A (1970), An antitussive test using guinea-pigs. Br. J. Pharmacol., 39, 225P], con modificaciones más recientes [Adcock J J, Schneider C, Smith T W (1988), Effects of codeine, morphine a novel opioid pentapeptide BW443C, on cough, nociception and ventilation in the unanaesthetized guinea-pig. Br. J. Pharmacol., 93:93-100; Clay T P, Thompson M A (1985), Irritant induced cough as a model of intrapulmonary airway reactivity. Lung, 163:183-191; Forsberg K, Karlsson J-A, Theodorsson E; Lundberg J M; Persson C G A (1988), Cough and bronchoconstriction mediated by capsaicin-sensitive sensory neurons in the guinea-pig. Pulm Pharmacol, 1: 33-39; Gallico L, Borghi A, Dalla Rosa C, Ceserani R, Tognella S (1994), Moguisteine: a novel peripheral non-narcotic antitussive drug. Br. J. Pharmacol,112:795-800].
The guinea-pigs (250-400 g) were deprived of water and food 30 minutes before any intervention. The guinea-pigs, neither ligated nor anaesthetised, were individually placed in a perspex box (20×12×14 cm.) and left for an accommodation period of 15 minutes. After this period, the animals were exposed to an aerosol of an aqueous solution of citric acid (7.5% p/v, 0.39M). This concentration of citric acid is the minimum concentration capable of producing the maximum number of coughs during the observation period (Forsberg et al., 1988). The aerosol was generated for 2.5 minutes using an ultrasound nebulizer (De Vilbiss, Ultraneb 99; mean particle size 0.9 μm, with a flow of 0.5 ml/min.). The observation period with the animals exposed to the nebulized citric acid in the box was 12.5 minutes (2.5 minutes of aerosol production, followed by an additional 10 minutes). During this period, the animals were observed continuously, the number of coughs was counted and the baseline value was taken as control. Only the guinea-pigs that coughed between 15 and 30 times during the observation period were selected for the study. On the day after the selection the animals were randomly treated with the vehicle or with the study product thirty minutes before being exposed again to the citric acid aerosol. The antitussive activity was assessed for each guinea-pig as the reduction in the number of coughs compared to their previously recorded values. On the other hand, the animals were observed from the time of administration of the product until the end of the experiment for possible sedative effects.

A short description of data set [2]: Observation for possible sedative effects in the treated guinea-pigs. The format is in vivo, guinea-pig. The conditions noted are these: ip.
Excerpt: as §1, with “Br. J. Pharmacol,112:795-800].” left out
The guinea-pigs (250-400 g) were deprived of water and food 30 minutes before any intervention. […] During this period, the animals were observed continuously, the number of coughs was counted and the baseline value was taken as control. […] The antitussive activity was assessed for each guinea-pig as the reduction in the number of coughs compared to their previously recorded values. […]

In the case of `CN(C)CCOC(c1ccccc1)c1ccnn1C.O=C(O)CC(O)(CC(=O)O)C(=O)O` (racemic) [Product, (±)-5-{α-[2-(dimethylamine)ethoxy]benzyl}-1-methyl-1H pirazole citrate], the entries for the “N° of Coughs ± SEM” value in data set [1] (10 mg/kg), in data set [1] (40 mg/kg) and in data set [1] (100 mg/kg) were 8.7 ± 0.7, 4.3 ± 0.5 and 2.8 ± 0.4, respectively. Also, in data set [1] (10, 40 and 100 mg/kg), the “antitussive activity (in words)” value is on record as “good antitussive activity which is perfectly dose-related”. The same compound displayed an inhibition at 10 mg/kg in data set [1] (Cavia porcellus, 10 mg/kg, inhibition of coughs) of 37%. Further, the inhibition at 40 mg/kg in data set [1] (Cavia porcellus, 40 mg/kg, inhibition of coughs) was 71%. Also, the inhibition at 100 mg/kg in data set [1] (Cavia porcellus, 100 mg/kg, inhibition of coughs) was 80%. Further, the SD-50 in data set [1] is 17.6 mg/kg, ip; in data set [1] (listed as (±)-5-{α-[2(dimethylamine) ethoxy]benzyl}-1-methyl-1H-pirazole citrate) it was 17.6 mg/kg. The sedative effect entry is “does not produce any sedative effect” in data set [2] (10, 40 and 100 mg/kg); “no sedative effect” in data set [2] (maximum dose used 100 mg/kg).

What is called inhibition is the relative decrease from the control value, in per cent. Read a high inhibition as strong suppression.
